Measured values from US9283222B2 (priority 2006, dated 2016).

Target: Recombinant Human Poly(ADP-Ribose) Polymerase (PARP), PARP-1 (Homo sapiens (Human), UniProt P09874)
Details: read-out: PARP-1 (Ki); Table 1; text calls the values EC50s

Recombinant Human Poly(ADP-Ribose) Polymerase (PARP), PARP-1, sequence (P09874 whole entry): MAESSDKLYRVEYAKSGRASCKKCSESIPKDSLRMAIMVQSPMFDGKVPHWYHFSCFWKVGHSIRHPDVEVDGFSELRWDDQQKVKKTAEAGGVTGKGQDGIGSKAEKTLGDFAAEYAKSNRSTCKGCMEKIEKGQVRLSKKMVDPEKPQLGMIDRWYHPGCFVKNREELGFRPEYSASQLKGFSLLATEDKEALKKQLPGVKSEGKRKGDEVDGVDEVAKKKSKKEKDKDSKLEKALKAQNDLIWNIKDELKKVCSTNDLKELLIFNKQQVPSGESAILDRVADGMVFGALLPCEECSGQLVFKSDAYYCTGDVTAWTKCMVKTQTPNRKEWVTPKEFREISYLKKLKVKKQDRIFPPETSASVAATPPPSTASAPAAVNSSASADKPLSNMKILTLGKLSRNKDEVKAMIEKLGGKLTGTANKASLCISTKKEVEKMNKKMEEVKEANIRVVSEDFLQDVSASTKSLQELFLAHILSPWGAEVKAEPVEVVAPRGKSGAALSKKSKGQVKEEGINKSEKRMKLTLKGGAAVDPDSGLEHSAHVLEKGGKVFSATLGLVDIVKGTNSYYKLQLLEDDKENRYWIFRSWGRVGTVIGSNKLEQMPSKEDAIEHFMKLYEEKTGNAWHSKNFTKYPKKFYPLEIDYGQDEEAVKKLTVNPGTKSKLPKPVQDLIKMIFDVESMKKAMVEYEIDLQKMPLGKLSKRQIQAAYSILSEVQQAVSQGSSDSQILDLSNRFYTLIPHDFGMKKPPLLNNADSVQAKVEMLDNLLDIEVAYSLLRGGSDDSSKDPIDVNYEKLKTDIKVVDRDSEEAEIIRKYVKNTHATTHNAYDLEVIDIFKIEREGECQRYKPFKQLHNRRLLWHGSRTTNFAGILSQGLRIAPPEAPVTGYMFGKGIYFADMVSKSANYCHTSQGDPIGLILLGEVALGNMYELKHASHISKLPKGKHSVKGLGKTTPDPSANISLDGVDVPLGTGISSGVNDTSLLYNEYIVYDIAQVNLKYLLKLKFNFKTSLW

Row | Compound | Ki [µM]
1 | C[S+]([O-])c1nccc(Cc2n[nH]c(=O)c3c2CCCC3)n1 (centres unmarked) [Example 70, 4-((2-(methylsulfinyl)pyrimidin-4-yl)methyl)-5,6,7,8-tetrahydrophthalazin-1(2H)-one] | 0.101
2 | CC(=O)N1CCN(C(=O)c2cc(Cc3n[nH]c(=O)c4c3CCCC4)ccc2F)CC1 [Example 520, 4-{3-[(4-acetylpiperazin-1-yl)carbonyl]-4-fluorobenzyl}-5,6,7,8-tetrahydrophthalazin-1(2H)-one] | 0.0001
3 | CC(C)(C)OC(=O)N1CCN(C(=O)OCc2ccccc2)CC1Cc1n[nH]c(=O)c2c1CCCC2 (centres unmarked) [Example 258, 4-benzyl 1-tert-butyl 2-((4-oxo-3,4,5,6,7,8-hexahydrophthalazin-1-yl)methyl)piperazine-1,4-dicarboxylate] | 1.77
4 | COc1cc(NC(=O)c2cccc(Cc3n[nH]c(=O)c4c3CCCC4)c2)ccc1C [Example 352, N-(3-methoxy-4-methylphenyl)-3-((4-oxo-3,4,5,6,7,8-hexahydrophthalazin-1-yl)methyl)benzamide] | 0.154
5 | CC(C)(C)c1cccc(NC(=O)c2cccc(Cc3n[nH]c(=O)c4c3CCCC4)c2)c1 [Example 335, N-(3-tert-butylphenyl)-3-((4-oxo-3,4,5,6,7,8-hexahydrophthalazin-1-yl)methyl)benzamide] | 0.122
6 | O=C(NCCc1ccccc1)c1cccc(Cc2n[nH]c(=O)c3c2CCCC3)c1 [Example 375, 3-((4-oxo-3,4,5,6,7,8-hexahydrophthalazin-1-yl)methyl)-N-(2-phenylethyl)benzamide] | 0.051
7 | O=C(NC1CCN(C(=O)c2cc(Cc3n[nH]c(=O)c4c3NCCC4)ccc2F)CC1)c1cscn1 [Example 751, N-(1-{2-fluoro-5-[(5-oxo-1,2,3,4,5,6-hexahydropyrido[2,3-d]pyridazin-8-yl)methyl]benzoyl}piperidin-4-yl)-1,3-thiazole-4-carboxamide] | 0.0015
8 | O=C(Cc1ccccn1)Nc1cccc(Cc2n[nH]c(=O)c3c2CCCC3)c1 [Example 215, N-(3-((4-oxo-3,4,5,6,7,8-hexahydrophthalazin-1-yl)methyl)phenyl)-2-pyridin-2-ylacetamide] | 0.085
9 | O=C(NCCc1ccc2c(c1)OCO2)c1cccc(Cc2n[nH]c(=O)c3c2CCCC3)c1 [Example 407, N-(2-(1,3-benzodioxol-5-yl)ethyl)-3-((4-oxo-3,4,5,6,7,8-hexahydrophthalazin-1-yl)methyl)benzamide] | 0.022
10 | CN(C)CCC(=O)Nc1cccc(Cc2n[nH]c(=O)c3c2CCCC3)c1 [Example 221] | 1.54
11 | O=C(Nc1cccc(Cc2n[nH]c(=O)c3c2CCCC3)c1)c1ccccc1Nc1ccccc1 [Example 240, 2-anilino-N-(3-((4-oxo-3,4,5,6,7,8-hexahydrophthalazin-1-yl)methyl)phenyl)benzamide] | 0.285
12 | O=C(OCc1ccccc1)N1CCCN(C(=O)c2cc(Cc3n[nH]c(=O)c4c3NCCC4)ccc2F)CC1 [Example 659, benzyl 4-{2-fluoro-5-[(5-oxo-1,2,3,4,5,6-hexahydropyrido[2,3-d]pyridazin-8-yl)methyl]benzoyl}-1,4-diazepane-1-carboxylate] | 0.0025
13 | Cc1ccc(C(=O)Nc2cccc(Cc3n[nH]c(=O)c4c3CCCC4)c2)cc1F [Example 180, 3-fluoro-4-methyl-N-(3-((4-oxo-3,4,5,6,7,8-hexahydrophthalazin-1-yl)methyl)phenyl)benzamide] | 0.159
14 | O=C1CC[C@H](C(=O)Nc2cccc(Cc3n[nH]c(=O)c4c3CCCC4)c2)N1 [Example 140, 5-oxo-N-(3-((4-oxo-3,4,5,6,7,8-hexahydrophthalazin-1-yl)methyl)phenyl)-D-prolinamide] | 0.06
15 | O=C(c1ccc2ccccc2n1)N1CCN(C(=O)c2cc(Cc3n[nH]c(=O)c4c3NCCC4)ccc2F)CC1 [Example 645] | 0.0015
16 | O=C(NC1CCN(C(=O)c2ccc3[nH]cnc3c2)CC1)c1cc(Cc2n[nH]c(=O)c3c2NCCC3)ccc1F [Example 713, N-[1-(1H-benzimidazol-5-ylcarbonyl)piperidin-4-yl]-2-fluoro-5-[(5-oxo-1,2,3,4,5,6-hexahydropyrido[2,3-d]pyridazin-8-yl)methyl]benzamide] | 0.0018
17 | Cc1ccc(OCC(=O)Nc2cccc(Cc3n[nH]c(=O)c4c3CCCC4)c2)cc1 [Example 150, 2-(4-methylphenoxy)-N-(3-((4-oxo-3,4,5,6,7,8-hexahydrophthalazin-1-yl)methyl)phenyl)acetamide] | 0.016
18 | O=C(c1cc(Cc2n[nH]c(=O)c3c2NCCC3)ccc1F)N1CCN(CCN2CCCCC2)CC1 [Example 570, 8-(4-fluoro-3-{[4-(2-piperidin-1-ylethyl)piperazin-1-yl]carbonyl}benzyl)-2,3,4,6-tetrahydropyrido[2,3-d]pyridazin-5(1H)-one] | 0.008
19 | O=C(c1cc(Cc2n[nH]c(=O)c3c2CCCC3)ccc1F)N1CCN(C(=O)N2CCCC2)CC1 [Example 576, 4-(4-fluoro-3-{[4-(pyrrolidine-1-ylcarbonyl)piperazin-1-yl]carbonyl}benzyl)-5,6,7,8-tetrahydrophthalazin-1(2H)-one] | 0.0009

Row | Compound | Ki [µM]
20 | CCN(C(C)=O)C1CCN(C(=O)c2cc(Cc3n[nH]c(=O)c4c3CCCC4)ccc2F)C1 (centres unmarked) [Example 619, N-ethyl-N-(1-{2-fluoro-5-[(4-oxo-3,4,5,6,7,8-hexahydrophthalazin-1-yl)methyl]benzoyl}pyrrolidine-3-yl)acetamide] | 0.004
21 | O=C(c1cccc(Cc2n[nH]c(=O)c3c2CCCC3)c1)N1CCN(c2ccccn2)CC1 [Example 441, 4-(3-((4-pyridin-2-ylpiperazin-1-yl)carbonyl)benzyl)-5,6,7,8-tetrahydrophthalazin-1(2H)-one] | 0.003
22 | C[C@@H]1CN(C(=O)c2ccccc2)CCN1C(=O)c1cc(Cc2n[nH]c(=O)c3c2CCCC3)ccc1F [Example 668, 4-(3-{[(2R)-4-benzoyl-2-methylpiperazin-1-yl]carbonyl}-4-fluorobenzyl)-5,6,7,8-tetrahydrophthalazin-1(2H)-one] | 0.0019
23 | CCc1cccc(NC(=O)c2cccc(Cc3n[nH]c(=O)c4c3CCCC4)c2)c1 [Example 330, N-(3-ethylphenyl)-3-((4-oxo-3,4,5,6,7,8-hexahydrophthalazin-1-yl)methyl)benzamide] | 0.099
24 | O=C(c1ccco1)N1CCN(C(=O)c2cc(Cc3n[nH]c(=O)c4c3NCCC4)ccc2F)CC1 [Example 553, 8-(4-fluoro-3-{[4-(2-furoyl)piperazin-1-yl]carbonyl}benzyl)-2,3,4,6-tetrahydropyrido[2,3-d]pyridazin-5(1H)-one] | 0.0008
25 | CCC(=O)N1CCN(C(=O)c2cc(Cc3n[nH]c(=O)c4c3NCCC4)ccc2F)CC1 [Example 597, 8-{4-fluoro-3-[(4-propionylpiperazin-1-yl)carbonyl]benzyl}-2,3,4,6-tetrahydropyrido[2,3-d]pyridazin-5(1H)-one] | 0.0008
26 | O=C(c1cc(Cc2n[nH]c(=O)c3c2CCCC3)ccc1F)N1CCN(c2cccnc2)CC1 [Example 756, 4-{4-fluoro-3-[(4-pyridin-3-ylpiperazin-1-yl)carbonyl]benzyl}-5,6,7,8-tetrahydrophthalazin-1(2H)-one] | 0.0009
27 | O=C(NCc1ccncc1)c1cccc(Cc2n[nH]c(=O)c3c2CCCC3)c1 [Example 312, 3-((4-oxo-3,4,5,6,7,8-hexahydrophthalazin-1-yl)methyl)-N-(pyridin-4-ylmethyl)benzamide] | 0.131
28 | Nc1cc(Cc2n[nH]c(=O)c3c2CCCC3)ccc1Cl [Example 278, 4-(3-amino-4-chlorobenzyl)-5,6,7,8-tetrahydrophthalazin-1(2H)-one] | 0.185
29 | Cc1cc(NC(=O)c2cccc(Cc3n[nH]c(=O)c4c3CCCC4)c2)ccc1Cl [Example 343, N-(4-chloro-3-methylphenyl)-3-((4-oxo-3,4,5,6,7,8-hexahydrophthalazin-1-yl)methyl)benzamide] | 0.087
30 | CN(C(=O)C1CCC1)c1cc(Cc2n[nH]c(=O)c3c2CCCC3)ccc1F [Example 753, N-{2-fluoro-5-[(4-oxo-3,4,5,6,7,8-hexahydrophthalazin-1-yl)methyl]phenyl}-N-methylcyclobutanecarboxamide] | 0.092
31 | O=C(c1cc(Cc2n[nH]c(=O)c3c2NCCC3)ccc1F)N1CCN(C(=O)C2CCCO2)CC1 (centres unmarked) [Example 569, 8-(4-fluoro-3-{[4-(tetrahydrofuran-2-ylcarbonyl)piperazin-1-yl]carbonyl}benzyl)-2,3,4,6-tetrahydropyrido[2,3-d]pyridazin-5(1H)-one] | 0.0012
32 | CC(c1cccc(-c2cccc(C(=O)NCCN(C)C)c2)c1)c1n[nH]c(=O)c2c1CCCC2 (centres unmarked) [Example 287, N-(2-(dimethylamino)ethyl)-3′-(1-(4-oxo-3,4,5,6,7,8-hexahydrophthalazin-1-yl)ethyl)-1,1′-biphenyl-3-carboxamide] | 0.771
33 | CCS(=O)(=O)N1CCN(C(=O)c2cc(Cc3n[nH]c(=O)c4c3CCCC4)ccc2F)CC1 [Example 586, 4-(3-{[4-(ethylsulfonyl)piperazin-1-yl]carbonyl}-4-fluorobenzyl)-5,6,7,8-tetrahydrophthalazin-1(2H)-one] | 0.0011
34 | CCc1ccc(NC(=O)c2cccc(Cc3n[nH]c(=O)c4c3CCCC4)c2)cc1 [Example 331] | 0.14
35 | CCCCN(Cc1ccccc1)C(=O)c1cccc(Cc2n[nH]c(=O)c3c2CCCC3)c1 [Example 422, N-benzyl-N-butyl-3-((4-oxo-3,4,5,6,7,8-hexahydrophthalazin-1-yl)methyl)benzamide] | 0.105
36 | COc1ccc(NC(=O)c2cccc(Cc3n[nH]c(=O)c4c3CCCC4)c2)cc1O [Example 353, N-(3-hydroxy-4-methoxyphenyl)-3-((4-oxo-3,4,5,6,7,8-hexahydrophthalazin-1-yl)methyl)benzamide] | 0.059
37 | COc1ccc(OC)c(CCNC(=O)c2cccc(Cc3n[nH]c(=O)c4c3CCCC4)c2)c1 [Example 404, N-(2-(2,5-dimethoxyphenyl)ethyl)-3-((4-oxo-3,4,5,6,7,8-hexahydrophthalazin-1-yl)methyl)benzamide] | 0.055
38 | O=C(CCS(=O)(=O)c1ccccc1)Nc1cccc(Cc2n[nH]c(=O)c3c2CCCC3)c1 [Example 175, N-(3-((4-oxo-3,4,5,6,7,8-hexahydrophthalazin-1-yl)methyl)phenyl)-3-(phenylsulfonyl)propanamide] | 0.021
